Laboratory results reported in paper PMC8854719, “Phase 1A/1B dose-escalation and -expansion study to evaluate the safety, pharmacokinetics, food effects and antitumor activity of pamiparib in advanced solid tumours” (British Journal of Cancer, 2021).

Assay: Safety and tolerability: adverse events, dose-limiting toxicities, MTD, RP2D (Phase 1A/1B)
Format: in vivo
Method: This was an open-label, Phase 1, dose-escalation/dose-expansion study, conducted across six study centres in Australia. The dose-escalation phase evaluated twice-daily (BID) and once-daily (QD) dosing, and the dose-expansion phase evaluated the BID RP2D from the dose-escalation phase and food effects (Fig. 1). The food-effects cohort comprised two sequences: fast followed by fed (sequence 1) and fed followed by fast (sequence 2). […] The decision to proceed to the next dose cohort was determined by the Safety Monitoring Committee and followed a modified 3 + 3 escalation scheme. […] When ≥2 DLTs occurred in the first 23 days of a dose level, the next lower dose level was declared the MTD. Safety was monitored and DLTs were assessed in all dose cohorts. […] The food-effects cohort investigated the effects of food on the PK of pamiparib in patients with advanced solid tumours.
The QD dosing regimen was added as an amendment to the protocol with the purpose of exploring the feasibility of a more convenient regimen.
Safety and tolerability were assessed throughout the study by monitoring adverse events (AEs), serious AEs, clinical laboratory measurements and physical examinations. Adverse events were categorised according to their severity (National Cancer Institute Common Terminology Criteria for Adverse Events v4.03) and relationship to the study treatment.

## C[C@]12CCCN1CC1=NNC(=O)c3cc(F)cc4[nH]c2c1c34 [pamiparib]
2.5 mg BID (n = 4)
  Abdominal pain, AE of any grade: 1 (25.0) n (%)
  Anaemia, AE of any grade: 1 (25.0) n (%)
  Ascites, AE of any grade: 1 (25.0) n (%)
  Back pain, AE of any grade: 0 (0.0) n (%)
  Constipation, AE of any grade: 1 (25.0) n (%)
  Cough, AE of any grade: 0 (0.0) n (%)
  Decreased appetite, AE of any grade: 0 (0.0) n (%)
  Diarrhoea, AE of any grade: 0 (0.0) n (%)
  Dose-limiting toxicity: 0 (0.0) n (%)
  Dyspnoea, AE of any grade: 0 (0.0) n (%)
  Fatigue, AE of any grade: 1 (25.0) n (%)
  Headache, AE of any grade: 0 (0.0) n (%)
  Hypoalbuminemia, AE of any grade: 1 (25.0) n (%)
  Hypomagnesemia, AE of any grade: 0 (0.0) n (%)
  Hypophosphatemia, AE of any grade: 0 (0.0) n (%)
  Increased AST, AE of any grade: 0 (0.0) n (%)
  Muscle spasms, AE of any grade: 1 (25.0) n (%)
  Nausea, AE of any grade: 3 (75.0) n (%)
  Neutropenia, AE of any grade: 0 (0.0) n (%)
  Non-cardiac chest pain, AE of any grade: 0 (0.0) n (%)
  Pain in extremity, AE of any grade: 0 (0.0) n (%)
  Peripheral sensory neuropathy, AE of any grade: 0 (0.0) n (%)
  Pleural effusion, AE of any grade: 0 (0.0) n (%)
  Pyrexia, AE of any grade: 1 (25.0) n (%)
  Treatment-emergent AE: 4 (100.0) n (%)
  Treatment-emergent AE: Grade 3 or higher: 3 (75.0) n (%)
  Treatment-emergent AE: Leading to death: 0 (0.0) n (%)
  Treatment-emergent AE: Leading to dose interruption: 1 (25.0) n (%)
  Treatment-emergent AE: Leading to dose modification: 1 (25.0) n (%)
  Treatment-emergent AE: Leading to dose reduction: 0 (0.0) n (%)
  Treatment-emergent AE: Leading to treatment discontinuation: 0 (0.0) n (%)
  Treatment-emergent AE: Serious: 3 (75.0) n (%)
  Treatment-related AE: 3 (75.0) n (%)
  Treatment-related AE: Grade 3 or higher: 0 (0.0) n (%)
  Treatment-related AE: Leading to death: 0 (0.0) n (%)
  Treatment-related AE: Leading to dose interruption: 0 (0.0) n (%)
  Treatment-related AE: Leading to dose modification: 0 (0.0) n (%)
  Treatment-related AE: Leading to dose reduction: 0 (0.0) n (%)
  Treatment-related AE: Leading to treatment discontinuation: 0 (0.0) n (%)
  Treatment-related AE: Serious: 0 (0.0) n (%)
  Upper respiratory tract infection, AE of any grade: 1 (25.0) n (%)
  Urinary tract infection, AE of any grade: 0 (0.0) n (%)
  Vomiting, AE of any grade: 1 (25.0) n (%)
5.0 mg BID (n = 3)
  Abdominal pain, AE of any grade: 0 (0.0) n (%)
  Anaemia, AE of any grade: 0 (0.0) n (%)
  Ascites, AE of any grade: 0 (0.0) n (%)
  Back pain, AE of any grade: 0 (0.0) n (%)
  Constipation, AE of any grade: 0 (0.0) n (%)
  Cough, AE of any grade: 0 (0.0) n (%)
  Decreased appetite, AE of any grade: 0 (0.0) n (%)
  Diarrhoea, AE of any grade: 1 (33.3) n (%)
  Dose-limiting toxicity: 0 (0.0) n (%)
  Dyspnoea, AE of any grade: 0 (0.0) n (%)
  Fatigue, AE of any grade: 1 (33.3) n (%)
  Headache, AE of any grade: 1 (33.3) n (%)
  Hypoalbuminemia, AE of any grade: 0 (0.0) n (%)
  Hypomagnesemia, AE of any grade: 0 (0.0) n (%)
  Hypophosphatemia, AE of any grade: 0 (0.0) n (%)
  Increased AST, AE of any grade: 0 (0.0) n (%)
  Muscle spasms, AE of any grade: 1 (33.3) n (%)
  Nausea, AE of any grade: 0 (0.0) n (%)
  Neutropenia, AE of any grade: 0 (0.0) n (%)
  Non-cardiac chest pain, AE of any grade: 0 (0.0) n (%)
  Pain in extremity, AE of any grade: 0 (0.0) n (%)
  Peripheral sensory neuropathy, AE of any grade: 1 (33.3) n (%)
  Pleural effusion, AE of any grade: 1 (33.3) n (%)
  Pyrexia, AE of any grade: 0 (0.0) n (%)
  Treatment-emergent AE: 3 (100.0) n (%)
  Treatment-emergent AE: Grade 3 or higher: 1 (33.3) n (%)
  Treatment-emergent AE: Leading to death: 0 (0.0) n (%)
  Treatment-emergent AE: Leading to dose interruption: 1 (33.3) n (%)
  Treatment-emergent AE: Leading to dose modification: 1 (33.3) n (%)
  Treatment-emergent AE: Leading to dose reduction: 0 (0.0) n (%)
  Treatment-emergent AE: Leading to treatment discontinuation: 0 (0.0) n (%)
  Treatment-emergent AE: Serious: 2 (66.7) n (%)
  Treatment-related AE: 2 (66.7) n (%)
  Treatment-related AE: Grade 3 or higher: 0 (0.0) n (%)
  Treatment-related AE: Leading to death: 0 (0.0) n (%)
  Treatment-related AE: Leading to dose interruption: 0 (0.0) n (%)
  Treatment-related AE: Leading to dose modification: 0 (0.0) n (%)
  Treatment-related AE: Leading to dose reduction: 0 (0.0) n (%)
  Treatment-related AE: Leading to treatment discontinuation: 0 (0.0) n (%)
  Treatment-related AE: Serious: 0 (0.0) n (%)
  Upper respiratory tract infection, AE of any grade: 0 (0.0) n (%)
  Urinary tract infection, AE of any grade: 0 (0.0) n (%)
  Vomiting, AE of any grade: 0 (0.0) n (%)
10 mg BID (n = 3)
  Abdominal pain, AE of any grade: 1 (33.3) n (%)
  Anaemia, AE of any grade: 1 (33.3) n (%)
  Ascites, AE of any grade: 2 (66.7) n (%)
  Back pain, AE of any grade: 0 (0.0) n (%)
  Constipation, AE of any grade: 1 (33.3) n (%)
  Cough, AE of any grade: 1 (33.3) n (%)
  Decreased appetite, AE of any grade: 0 (0.0) n (%)
  Diarrhoea, AE of any grade: 1 (33.3) n (%)
  Dose-limiting toxicity: 0 (0.0) n (%)
  Dyspnoea, AE of any grade: 1 (33.3) n (%)
  Fatigue, AE of any grade: 0 (0.0) n (%)
  Headache, AE of any grade: 0 (0.0) n (%)
  Hypoalbuminemia, AE of any grade: 0 (0.0) n (%)
  Hypomagnesemia, AE of any grade: 1 (33.3) n (%)
  Hypophosphatemia, AE of any grade: 0 (0.0) n (%)
  Increased AST, AE of any grade: 0 (0.0) n (%)
  Muscle spasms, AE of any grade: 0 (0.0) n (%)
  Nausea, AE of any grade: 1 (33.3) n (%)
  Neutropenia, AE of any grade: 0 (0.0) n (%)
  Non-cardiac chest pain, AE of any grade: 0 (0.0) n (%)
  Pain in extremity, AE of any grade: 0 (0.0) n (%)
  Peripheral sensory neuropathy, AE of any grade: 0 (0.0) n (%)
  Pleural effusion, AE of any grade: 0 (0.0) n (%)
  Pyrexia, AE of any grade: 1 (33.3) n (%)
  Treatment-emergent AE: 3 (100.0) n (%)
  Treatment-emergent AE: Grade 3 or higher: 2 (66.7) n (%)
  Treatment-emergent AE: Leading to death: 0 (0.0) n (%)
  Treatment-emergent AE: Leading to dose interruption: 1 (33.3) n (%)
  Treatment-emergent AE: Leading to dose modification: 1 (33.3) n (%)
  Treatment-emergent AE: Leading to dose reduction: 0 (0.0) n (%)
  Treatment-emergent AE: Leading to treatment discontinuation: 0 (0.0) n (%)
  Treatment-emergent AE: Serious: 2 (66.7) n (%)
  Treatment-related AE: 0 (0.0) n (%)
  Treatment-related AE: Grade 3 or higher: 0 (0.0) n (%)
  Treatment-related AE: Leading to death: 0 (0.0) n (%)
  Treatment-related AE: Leading to dose interruption: 0 (0.0) n (%)
  Treatment-related AE: Leading to dose modification: 0 (0.0) n (%)
  Treatment-related AE: Leading to dose reduction: 0 (0.0) n (%)
  Treatment-related AE: Leading to treatment discontinuation: 0 (0.0) n (%)
  Treatment-related AE: Serious: 0 (0.0) n (%)
  Upper respiratory tract infection, AE of any grade: 0 (0.0) n (%)
  Urinary tract infection, AE of any grade: 0 (0.0) n (%)
  Vomiting, AE of any grade: 1 (33.3) n (%)
20 mg BID (n = 3)
  Abdominal pain, AE of any grade: 2 (66.7) n (%)
  Anaemia, AE of any grade: 0 (0.0) n (%)
